From ChEMBL document CHEMBL3112567, “Novel GlyT1 inhibitor chemotypes by scaffold hopping. Part 1: development of a potent and CNS penetrant [3.1.0]-based lead” (Bioorg Med Chem Lett, 2014)
Active and inactive are the calls of the source. No cut-off for these calls is given here.

How the values were obtained:
[1] = (§1) Fraction unbound in human plasma; format: ADME, cell-free
[2] = Partitioning coefficient, ratio of drug uptake from rat brain to plasma at 10 mg/kg, po; format: ADME, organism-based; design: dose 10 mg/kg, route oral
Cytochrome P450 2C9 = Cytochrome P450 2C9 (Homo sapiens, UniProt P11712); assay: Inhibition of CYP2C9 (unknown origin); format: ADME
[3] = biological target: T1, Sodium- and chloride-dependent glycine transporter 1 (Homo sapiens, UniProt P48067); assay: Inhibition of GlyT1 (unknown origin) assessed as inhibition of [14C]glycine uptake
T1 sequence (P48067 whole entry): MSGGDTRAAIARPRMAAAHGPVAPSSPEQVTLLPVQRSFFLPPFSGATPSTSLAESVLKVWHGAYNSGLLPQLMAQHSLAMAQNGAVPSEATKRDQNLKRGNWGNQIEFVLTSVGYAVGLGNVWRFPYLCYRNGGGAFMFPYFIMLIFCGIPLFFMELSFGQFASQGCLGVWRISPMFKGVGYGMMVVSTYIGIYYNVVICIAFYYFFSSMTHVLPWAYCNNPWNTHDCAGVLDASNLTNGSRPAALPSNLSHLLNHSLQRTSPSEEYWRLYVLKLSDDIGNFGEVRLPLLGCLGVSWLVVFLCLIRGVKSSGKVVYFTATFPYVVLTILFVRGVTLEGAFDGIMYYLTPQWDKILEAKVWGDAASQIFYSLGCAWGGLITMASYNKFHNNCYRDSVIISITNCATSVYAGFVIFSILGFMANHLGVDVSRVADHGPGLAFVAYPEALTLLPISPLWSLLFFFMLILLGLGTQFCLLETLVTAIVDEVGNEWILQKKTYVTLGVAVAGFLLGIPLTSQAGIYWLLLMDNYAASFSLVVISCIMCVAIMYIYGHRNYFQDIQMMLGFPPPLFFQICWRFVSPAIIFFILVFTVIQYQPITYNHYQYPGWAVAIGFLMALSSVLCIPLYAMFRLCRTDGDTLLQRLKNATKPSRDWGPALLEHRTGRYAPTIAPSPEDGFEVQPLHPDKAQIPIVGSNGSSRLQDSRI

Cytochrome P450 2D6 = Cytochrome P450 2D6 (Homo sapiens, UniProt P10635); assay: Inhibition of CYP2D6 (unknown origin); format: ADME
Cytochrome P450 1A2 = biological target: T2, Cytochrome P450 1A2 (Homo sapiens, UniProt P05177); assay: Inhibition of CYP1A2 (unknown origin); format: ADME
T2 sequence (P05177 whole entry): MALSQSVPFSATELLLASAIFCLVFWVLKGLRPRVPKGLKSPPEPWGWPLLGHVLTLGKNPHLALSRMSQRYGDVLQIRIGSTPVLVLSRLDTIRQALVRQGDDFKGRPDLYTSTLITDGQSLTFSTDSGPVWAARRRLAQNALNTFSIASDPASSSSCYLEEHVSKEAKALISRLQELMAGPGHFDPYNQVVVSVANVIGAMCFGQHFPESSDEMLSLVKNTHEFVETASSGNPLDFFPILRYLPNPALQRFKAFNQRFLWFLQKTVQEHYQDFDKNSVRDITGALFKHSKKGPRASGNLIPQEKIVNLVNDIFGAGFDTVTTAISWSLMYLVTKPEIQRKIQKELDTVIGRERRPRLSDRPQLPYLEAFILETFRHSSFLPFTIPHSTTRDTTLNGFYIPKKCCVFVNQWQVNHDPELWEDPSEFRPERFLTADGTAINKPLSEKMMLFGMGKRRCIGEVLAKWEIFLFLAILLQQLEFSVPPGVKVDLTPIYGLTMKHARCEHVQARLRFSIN

Cytochrome P450 3A4 = Cytochrome P450 3A4 (Homo sapiens, UniProt P08684); assay: Inhibition of CYP3A4 (unknown origin); format: ADME
Plasma [4] = assay: as §1; format: ADME, cell-free
[5] = biological target: T3, Sodium- and chloride-dependent glycine transporter 2 (Homo sapiens, UniProt Q9Y345); assay: Inhibition of GlyT2 (unknown origin)
T3 sequence (Q9Y345 whole entry): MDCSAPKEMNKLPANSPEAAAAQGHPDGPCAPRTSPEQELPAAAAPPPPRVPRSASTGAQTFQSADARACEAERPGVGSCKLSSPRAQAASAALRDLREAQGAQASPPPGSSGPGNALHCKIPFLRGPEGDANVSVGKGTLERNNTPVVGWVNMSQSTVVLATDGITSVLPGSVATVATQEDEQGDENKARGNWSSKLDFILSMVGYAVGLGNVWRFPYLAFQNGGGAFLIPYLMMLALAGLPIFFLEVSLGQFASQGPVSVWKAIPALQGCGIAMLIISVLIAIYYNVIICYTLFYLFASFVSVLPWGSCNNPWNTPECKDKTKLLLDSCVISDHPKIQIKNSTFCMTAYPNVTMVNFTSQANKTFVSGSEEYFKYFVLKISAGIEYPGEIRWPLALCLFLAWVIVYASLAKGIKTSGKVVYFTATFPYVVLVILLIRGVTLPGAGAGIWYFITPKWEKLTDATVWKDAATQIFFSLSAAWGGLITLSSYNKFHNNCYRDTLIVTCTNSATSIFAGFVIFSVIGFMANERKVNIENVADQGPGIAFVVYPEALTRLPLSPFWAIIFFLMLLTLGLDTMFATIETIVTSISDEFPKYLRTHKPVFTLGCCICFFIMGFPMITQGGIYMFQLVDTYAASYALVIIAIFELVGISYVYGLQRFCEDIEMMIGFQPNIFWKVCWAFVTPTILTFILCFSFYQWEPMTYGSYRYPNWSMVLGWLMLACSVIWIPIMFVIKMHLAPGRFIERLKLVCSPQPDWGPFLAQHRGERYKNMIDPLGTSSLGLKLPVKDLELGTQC

[6] = biological target: T4, Sodium- and chloride-dependent glycine transporter 1 (Homo sapiens) (UniProt P48067); assay: Competitive inhibition of GlyT1 (unknown origin) at 40 nM by Eadie-Hofstee plot analysis in presence of [14C]-glycine
T4 sequence (whole entry): T1 sequence (P48067 whole entry)

Rattus norvegicus [7] = assay: Toxicity in rat schizophrenia model assessed as effect on basal startle amplitude at 30 mg/kg, po; format: organism-based; design: dose 30 mg/kg, route oral; conditions: in vivo
Rattus norvegicus [8] = assay: Antischizophrenic activity in rat schizophrenia model assessed as inhibition of […] to […] dB intensity-induced prepulse at 30 mg/kg, po; format: functional, organism-based; design: dose 30 mg/kg
Plasma [9] = assay: Metabolic stability in rat plasma after 4 hrs; format: ADME, cell-free
[10] = AUC (0 to 6 hrs) in rat brain at 10 mg/kg, po; format: ADME, organism-based; design: time < 6 hr, dose 10 mg/kg, route oral
Plasma [11] = assay: AUC (0 to 6 hrs) in rat plasma at 10 mg/kg, sc; format: ADME, organism-based; design: time < 6 hr, dose 10 mg/kg, route subcutaneous; conditions: in vivo
[12] = Clearance in rat at 0.5 mg/kg, iv; format: ADME, organism-based; design: dose 0.5 mg/kg, route intravenous; conditions: in vivo
[13] = Half life in rat at 0.5 mg/kg, iv; format: ADME, organism-based; design: dose 0.5 mg/kg, route intravenous; conditions: in vivo
[14] = AUC (0 to 6 hrs) in rat brain at 10 mg/kg, sc; format: ADME, organism-based; design: time < 6 hr, dose 10 mg/kg, route subcutaneous
Plasma [15] = assay: Fraction unbound in rat plasma; format: ADME, cell-free
Plasma [16] = assay: AUC (0 to 6 hrs) in rat plasma at 10 mg/kg, po; format: ADME, organism-based; design: time < 6 hr, dose 10 mg/kg, route oral; conditions: in vivo
[17] = Partitioning coefficient, ratio of drug uptake from rat brain to plasma at 10 mg/kg, sc; format: ADME, organism-based; design: dose 10 mg/kg, route subcutaneous

Sequence of Cytochrome P450 2D6 (P10635 whole entry): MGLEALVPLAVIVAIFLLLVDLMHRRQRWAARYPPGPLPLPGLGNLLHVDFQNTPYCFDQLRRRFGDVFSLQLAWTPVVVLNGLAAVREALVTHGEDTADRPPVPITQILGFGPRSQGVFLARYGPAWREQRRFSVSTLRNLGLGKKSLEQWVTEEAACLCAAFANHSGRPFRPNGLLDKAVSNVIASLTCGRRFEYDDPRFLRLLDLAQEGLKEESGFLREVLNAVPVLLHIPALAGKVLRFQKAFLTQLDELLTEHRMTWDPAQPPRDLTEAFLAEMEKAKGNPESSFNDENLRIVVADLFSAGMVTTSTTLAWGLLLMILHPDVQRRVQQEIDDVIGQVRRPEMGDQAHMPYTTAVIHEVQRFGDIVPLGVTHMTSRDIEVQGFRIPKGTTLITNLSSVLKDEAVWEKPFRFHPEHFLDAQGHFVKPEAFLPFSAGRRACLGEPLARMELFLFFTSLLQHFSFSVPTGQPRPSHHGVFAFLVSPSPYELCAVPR
Sequence of Cytochrome P450 3A4 (P08684 whole entry): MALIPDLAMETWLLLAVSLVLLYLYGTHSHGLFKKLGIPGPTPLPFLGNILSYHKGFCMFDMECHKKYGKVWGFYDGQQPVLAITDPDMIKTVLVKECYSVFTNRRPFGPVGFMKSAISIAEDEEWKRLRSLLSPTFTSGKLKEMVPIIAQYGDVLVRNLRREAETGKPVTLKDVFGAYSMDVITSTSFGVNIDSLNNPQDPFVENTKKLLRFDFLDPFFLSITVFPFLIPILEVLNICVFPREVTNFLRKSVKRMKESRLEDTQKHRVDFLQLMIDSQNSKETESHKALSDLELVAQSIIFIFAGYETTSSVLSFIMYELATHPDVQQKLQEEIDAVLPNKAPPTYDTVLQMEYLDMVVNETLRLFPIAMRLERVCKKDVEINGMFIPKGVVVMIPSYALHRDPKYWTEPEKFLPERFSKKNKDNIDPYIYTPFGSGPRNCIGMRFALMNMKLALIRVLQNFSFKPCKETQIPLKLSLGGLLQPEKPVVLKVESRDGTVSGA
Sequence of Cytochrome P450 2C9 (P11712 whole entry): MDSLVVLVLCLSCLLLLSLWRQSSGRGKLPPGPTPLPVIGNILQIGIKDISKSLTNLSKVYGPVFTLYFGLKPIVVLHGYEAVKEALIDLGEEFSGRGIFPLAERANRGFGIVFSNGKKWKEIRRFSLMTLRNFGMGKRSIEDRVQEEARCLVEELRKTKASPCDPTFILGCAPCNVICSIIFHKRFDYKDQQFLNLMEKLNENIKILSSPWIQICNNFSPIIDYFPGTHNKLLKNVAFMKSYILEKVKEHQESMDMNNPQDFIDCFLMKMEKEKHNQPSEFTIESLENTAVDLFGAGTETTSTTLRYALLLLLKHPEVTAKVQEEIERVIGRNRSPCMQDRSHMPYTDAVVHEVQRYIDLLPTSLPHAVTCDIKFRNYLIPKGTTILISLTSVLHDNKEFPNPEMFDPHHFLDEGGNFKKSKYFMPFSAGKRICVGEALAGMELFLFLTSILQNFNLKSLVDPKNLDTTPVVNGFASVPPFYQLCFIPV

Cn1cnc(S(=O)(=O)N2C[C@@H]3[C@H](C2)[C@@]3(CNC(=O)c2ccc(Cl)cc2Cl)c2ccccn2)c1
fraction unbound [1]: 0.14 | Kp ([2]; brain): 1.1 | IC50 (Cytochrome P450 2C9): > 30 µM | IC50 [3]: 0.247 µM | IC50 (Cytochrome P450 2D6): > 30 µM | IC50 (Cytochrome P450 1A2): > 30 µM | IC50 (Cytochrome P450 3A4): > 30 µM

Cn1cnc(S(=O)(=O)N2C[C@@H]3[C@H](C2)[C@@]3(CNC(=O)c2ccc(Cl)c(Cl)c2)CC2CC2)c1
Fu (Plasma [4]): 2% | Kp ([2]; brain): 0.3 | IC50 [3]: 0.082 µM

Cn1cnc(S(=O)(=O)N2C[C@@H]3[C@H](C2)[C@@]3(CNC(=O)c2cccc(C(F)(F)F)c2)CC2CC2)c1
Fu (Plasma [4]): 4% | Kp ([2]; brain and plasma, read-out: Kp): 0.7 | IC50 [3]: 0.064 µM

CC(C)CS(=O)(=O)N1C[C@@H]2[C@H](C1)[C@@]2(CNC(=O)c1ccc(Cl)cc1Cl)CC1CC1
IC50 [3]: 2.9 µM | IC50 [5]: > 30 µM

O=C(NC[C@]1(CC2CC2)[C@@H]2CN(S(=O)(=O)c3cccnc3)C[C@@H]21)c1ccc(Cl)cc1Cl
IC50 [3]: 0.89 µM | IC50 [5]: > 30 µM

Cn1cnc(S(=O)(=O)N2C[C@@H]3[C@H](C2)[C@@]3(CNC(=O)c2ccc(Cl)cc2)CC2CC2)c1
Fu (Plasma [4]): 3% | Kp ([2]; brain): 0.3 | IC50 [3]: 0.032 µM

O=C(NC[C@]1(CC2CC2)[C@@H]2CN(S(=O)(=O)CC3CC3)C[C@@H]21)c1ccc(Cl)cc1Cl
IC50 [3]: 0.23 µM | IC50 [5]: > 30 µM

Cn1cnc(S(=O)(=O)N2C[C@@H]3[C@H](C2)[C@@]3(CNC(=O)c2ccc(Cl)cc2Cl)CC2CC2)c1
fraction unbound [1]: 0.05 | Kp ([2]; brain and plasma, read-out: Kp): 0.3

Cn1cnc(S(=O)(=O)N2C[C@@H]3[C@H](C2)[C@@]3(CNC(=O)c2c(Cl)cccc2Cl)CC2CC2)c1
Fu (Plasma [4]): 8% | Kp ([2]; brain): 0.5 | IC50 [3]: 0.028 µM | inhibition [6]: Active

CCCS(=O)(=O)N1CCC(c2ccccc2)([C@H](C)NC(=O)c2ccc(Cl)cc2Cl)CC1
IC50 (Cytochrome P450 2C9): > 10 µM | IC50 [3]: 0.0024 µM | IC50 (Cytochrome P450 3A4): > 10 µM

CC(C)S(=O)(=O)N1C[C@@H]2[C@H](C1)[C@@]2(CNC(=O)c1ccc(Cl)cc1Cl)CC1CC1
IC50 [3]: 3.4 µM | IC50 [5]: > 30 µM

CN1C[C@@H]2[C@H](C1)[C@H]2CN(Cc1ccc(Cl)c(F)c1)C(=O)c1cn(C)cn1
IC50 (Cytochrome P450 2C9): > 10 µM | IC50 (Cytochrome P450 3A4): > 10 µM

CCCS(=O)(=O)N1C[C@@H]2[C@H](C1)[C@@]2(CNC(=O)c1ccc(Cl)cc1Cl)CC1CC1
IC50 [3]: 0.36 µM | IC50 [5]: > 30 µM

CCS(=O)(=O)N1CCC(CNC(=O)c2ccc(Cl)cc2Cl)(CC2CC2)CC1
Activity (Rattus norvegicus [7]): Non-toxic | IC50 (Cytochrome P450 2C9): > 10 µM | IC50 (Cytochrome P450 3A4): > 10 µM | inhibition (Rattus norvegicus [8]): Active

Cn1cnc(S(=O)(=O)N2C[C@@H]3[C@H](C2)[C@@]3(CNC(=O)c2ccccc2C(F)(F)F)c2ccccn2)c1
fraction unbound [1]: 0.076 | IC50 (Cytochrome P450 2C9): > 30 µM | IC50 [3]: 0.185 µM | IC50 (Cytochrome P450 2D6): > 30 µM | IC50 (Cytochrome P450 1A2): > 30 µM | IC50 (Cytochrome P450 3A4): > 30 µM

Cn1cnc(S(=O)(=O)N2C[C@@H]3[C@H](C2)[C@@]3(CNC(=O)c2ccccc2C(F)(F)F)CC2CC2)c1
Fu (Plasma [4]): 7% | Stability (Plasma [9]): Stable | AUC(0-t) at 6 h [10]: 0.956 µM·h | Activity (Rattus norvegicus [7]): Non-toxic | AUC (Plasma [11]): 0.976 µM·h | Kp ([2]; brain): 0.83 | clearance [12]: 31 mL/min/kg | IC50 (Cytochrome P450 2C9): > 30 µM | IC50 [3]: 0.005 µM | IC50 (Cytochrome P450 2D6): > 30 µM | IC50 (Cytochrome P450 1A2): > 30 µM | half-life [13]: 14.5 min | AUC(0-t) at 6 h [14]: 0.431 µM·h | Fu (Plasma [15]): 44.8% | AUC (Plasma [16]): 1.156 µM·h | Kp [17]: 0.44 | inhibition (Rattus norvegicus [8]): Active

O=C(NC[C@]1(CC2CC2)[C@@H]2CN(S(=O)(=O)c3ccccn3)C[C@@H]21)c1ccc(Cl)cc1Cl
IC50 [3]: 1 µM | IC50 [5]: > 30 µM

Cn1cnc(S(=O)(=O)N2C[C@@H]3[C@H](C2)[C@@]3(CNC(=O)c2ccccc2Cl)CC2CC2)c1
fraction unbound [1]: 0.03 | Kp ([2]; brain and plasma, read-out: Kp): 0.4

NCC(=O)O [GLYCINE]
IC50 [3]: 31.6 µM

CCS(=O)(=O)N1C[C@@H]2[C@H](C1)[C@@]2(CNC(=O)c1ccc(Cl)cc1Cl)CC1CC1
IC50 [3]: 1.3 µM | IC50 [5]: > 30 µM

CCCCS(=O)(=O)N1C[C@@H]2[C@H](C1)[C@@]2(CNC(=O)c1ccc(Cl)cc1Cl)CC1CC1
IC50 [3]: 5.5 µM | IC50 [5]: > 30 µM

O=C(NC[C@]1(CC2CC2)[C@@H]2CN(S(=O)(=O)c3ccccc3F)C[C@@H]21)c1ccc(Cl)cc1Cl
IC50 [3]: > 10 µM | IC50 [5]: > 30 µM

O=C(NC[C@]1(CC2CC2)[C@@H]2CN(S(=O)(=O)c3ccccc3)C[C@@H]21)c1ccc(Cl)cc1Cl
IC50 [3]: > 10 µM | IC50 [5]: > 30 µM

Cn1cnc(S(=O)(=O)N2C[C@@H]3[C@H](C2)[C@@]3(CNC(=O)c2cc(Cl)cc(Cl)c2)CC2CC2)c1
Fu (Plasma [4]): 2% | Kp ([2]; brain): 0.3 | IC50 [3]: 0.1 µM
